From patent US11872210B2, “Thiol isomerases inhibitors and use thereof” (WESTERN NEW ENGLAND UNIVERSITY, priority 2017, dated 2024)
pIC50: −log10 of the molar value.

Legend:
washed platelets = assay: Dense granule secretion (ATP, lumi-aggregometer); format: cell-based, human; details: 10 μM; collagen 1 μg/mL; vehicle 1.25 nM
Description: (§1) Human Platelet Preparation: 50 mL of blood was drawn from drug free, consenting individuals, into a syringe containing 5 mL sodium citrate (4% w/v) and 7.5 mL warmed ACD (85 mM sodium citrate, 71 mM citric acid and 110 mM glucose). Blood was centrifuged at 102 g for 20 minutes to obtain platelet-rich plasma (PRP), which was then decanted and 104 prostacyclin (PGI2 125 μg/mL, solubilized in ethanol) added. Platelets were pelleted by centrifugation at 1413 g for 10 minutes, platelet poor plasma was discarded and the pellet resuspended in 25 mL Tyrode's-HEPES buffer (134 mM NaCl, 2.9 mM KCl, 0.34 mM Na2HPO4, 12 mM NaHCO3, 20 mM HEPES, 1 mM MgCl2 and 5 mM glucose pH 7.3), 3 mL of ACD and 10 μL PGI2 were added and then following centrifugation at 1413 g for 10 minutes, the platelet pellet was re-suspended to the appropriate cell density using Tyrode's buffer. Platelets were rested for 30 minutes at 30° C. to allow platelet responses to recover.
Dense granule secretion: 395 μL of washed platelets were added to a cuvette and incubated with 5 μL of zafirlukast or vehicle (0.1% (v/v) DMSO) for 3 minutes at 37° C. 50 μL Chronolume substrate was added and incubated for a further 2 minutes. […]
Washed platelets (4×10^8 cells/mL), were pre-treated with zafirlukast (0.1-10 μM) or vehicle for 3 minutes. […] Statistical analysis was calculated using a one-way ANOVA (n=3), *P<0.05.

platelets = assay: α-granule secretion of platelets; format: cell-based, human; details: 0.1 μM-10 μM
Description: Platelet responses in the presence of zafirlukast, (0.1 μM-10 μM) were tested in a range of platelet functional assays including aggregation, granule secretion and spreading studies.
(§2) Flow Cytometry: 5 μL platelets (2×10^8 cells/mL) was added to 42 μL HEPES-buffered saline with 1 mM Ca2+. To this, 0.5 μL zafirlukast (0.6 μM-10 μM) or montelukast (0.6 μM-10 μM) or vehicle (0.1% (v/v) DMSO) was added and incubated for 5 minutes. 1 μL anti-human CD62p (1:500 dilution) and 1 μL anti-fibrinogen FITC conjugate (1:500 dilution) or 2 μL of anti-PAC-1 antibody were added to samples. Platelets were treated with 5 μL CRP-XL (1 ug/mL) or 5 μL Tyrode's for 20 minutes in the dark. Samples were then fixed with 450 μL of 0.2% (v/v) paraformaldehyde and analyzed on an accuri C6 flow cytometer (BD Biosciences, UK), with the threshold set to 20,000. Platelet populations were gated and 10,000 events recorded.

whole human blood = assay: Thrombus formation under flow (in vitro, collagen coated Cellix capillaries); format: cell-based
Description: Thrombus Formation under flow: Human blood was drawn into 3.2% (w/v) sodium citrate and labelled with 2 μM DIOC-6 for an hour. A […] biochip was coated with 1 μL Collagen (100 μg/mL) for 1 hour. Blood was then incubated with vehicle (0.1% (v/v) DMSO) or zafirlukast (10 μM) for 5 minutes prior to perfusion over collagen coated Cellix microfluidic cells at a shear rate of 20 dynes/cm^2. Images were recorded for 10 minutes perfusion by confocal microscopy (Nikon Al Microscope, Nikon, Japan) and analyzed using ImageJ. Whole human blood labelled with the lipophilic dye DIOC-6 was incubated with zafirlukast (10 μM) or vehicle (0.1% (v/v) DMSO) for 5 minutes before perfusion over […] capillaries coated with collagen (100 μg/mL) at an arterial shear rate of 20 dynes/cm^2. Images were recorded for 10 minutes using confocal microscopy and analyzed using ImageJ. The median fluorescence intensity was determined and compared to max intensity response; the more intense the fluorescence the larger the volume of thrombus formed.

MDA-MB-231 cells = assay: PrestoBlue cell proliferation assay, MDA-MB-231; format: cell-based
Description: Cells were plated at 6,000 cells/well in a 96-well plate and treated with the indicated concentration of zafirlukast 24 hours later. Cells were allowed to grow for an additional 24 hours before alterations in growth were measured by the PrestoBlue cell proliferation assay in triplicate. Fluorescence readings with an excitation at 570 nm and emission of 600 nm were collected and treated samples were converted to a percentage of the untreated controls. OVCar8 (human ovarian cancer cell line), HCT116 (human colon cancer), HeLa (cervical cancer cell line) and MDA-MB-231 (breast cancer cell line) cell lines were examined for their ability to inhibit cell proliferation. […] Table 1 illustrates the results of a cell proliferation assay testing zafirlukast against OVCar8 cells, HCT116 cells, HeLa cells and MDA-MB-231 cells.

thrombus formation = assay: Thrombus formation in mice after laser injury of cremaster muscle arterioles (intravital microscopy); format: in vivo, C57/BL6 mouse; details: infused to circulating concentration of 20 μM, 5 minutes
Description: The effects of zafirlukast on thrombus formation in mice was determined following laser injury of cremaster muscle arterioles, and observed by intravital microscopy. Male C57/BL6 mouse platelets were labelled with DyLight 649-conjugated anti-GPIb antibody (0.2 μg/g body weight) and either vehicle or zafirlukast (ZFL) infused (at a volume required to achieve a circulating concentration of 20 μM). Following laser injury, images were recorded for 5 minutes. […] FIG. 6 illustrates the effects of ZFL on bleeding were determined by tail bleeding assay. Vehicle or ZFL (at a volume required to achieve a circulating concentration of 20 μM) were infused into the femoral veins of C57/BL6 mice, 5 minutes prior to tail biopsy. 0.5 cm of tail tip was excised and blood collected in phosphate-buffered saline (PBS), and time to cessation of bleeding was recorded. […] Graphs represent mean±SEM, n=10 per treatment, data analyzed by Student's T test, ***p<0.005.

[1] = test system: integrin αIIbβ3 on washed platelets; assay: Integrin activation (PAC-1 antibody binding) by flow cytometry; format: cell-based, human; details: CRP-XL stimulated
Description: as §1, with “Platelets were rested for 30 minutes at 30° C. to allow platelet responses to recover.” left out
Flow Cytometry: 5 μL platelets (2×10^8 cells/mL) was added to 42 μL HEPES-buffered saline with 1 mM Ca2+. […] Samples were then fixed with 450 μL of 0.2% (v/v) paraformaldehyde and analyzed on an accuri C6 flow cytometer (BD Biosciences, UK), with the threshold set to 20,000. Platelet populations were gated and 10,000 events recorded.
Washed platelets (2×10^8 cells/mL) were incubated with vehicle, zafirlukast (0.6-10 μM) or montelukast (0.6-10 μM) for 5 minutes. […] Data were analyzed using one-way ANOVA, n=3.

[2] = test system: platelets (fibrinogen receptor αIIbβ3); assay: Fibrinogen binding to αIIbβ3 by flow cytometry; format: cell-based, human
Description: as §1, §2

COc1cc(C(=O)NS(=O)(=O)c2ccccc2C)ccc1Cc1cn(C)c2ccc(NC(=O)OC3CCCC3)cc12 [zafirlukast, 4-(5-cyclopentyloxycarbonylamino-1-methylindol-3-ylmethyl)-3-methoxy-N-o-tolylsulfonylbenzamide]
mean ATP secretion (washed platelets): 0.327 nM
α-granule secretion (in words) (platelets): inhibit
final size of the thrombus (in words) (whole human blood; 10 μM, 10 minutes perfusion): significantly diminished compared to the vehicle
median fluorescence intensity (MFI) of thrombus (whole human blood; 10 μM, after 8 minutes of flow, 20 dynes/cm^2, vehicle 89.15): 74.86 Au
inhibition at 10 µM (whole human blood; Homo sapiens, arterial shear 20 dynes/cm^2, read-out: inhibition of median fluorescence intensity compared to vehicle): 14.2%
pIC50 (MDA-MB-231 cells; Homo sapiens, MDA-MB-231, breast cancer, 24 hours treatment): 4.00
sensitivity of cell proliferation (in words) (MDA-MB-231 cells; MDA-MB-231, compared with OVCar8 and HCT116): less sensitive
thrombus size (maximum fluorescence intensity), in words (thrombus formation): reduction in thrombus size
cell-surface bound PAC-1 antibody (fluorescence) ([1]; 10 μM, vehicle 1623 Au): 748.5 Au
inhibition at 10 µM ([1]; Homo sapiens, Platelet, PAC-1 binding): 54%
fibrinogen binding (fluorescence) ([2]; 10 μM, CRP-XL stimulated, vehicle 12520 Au): 3696 Au
inhibition at 10 µM ([2]; Homo sapiens, Platelet, 10 μM, CRP-XL stimulated): 64.5%
fibrinogen binding (in words) ([2]; lower concentrations (below 10 μM)): trend towards inhibition
